In patent US20230028441A1, “NOVEL HETEROARYL-TRIAZOLE COMPOUNDS AS PESTICIDES” (Bayer Aktiengesellschaft, priority 2019, published 2023):

Experiments:
Assay type in all cases: in vivo
[1] = test system: caterpillars of the fall army worm (Spodoptera frugiperda); assay: Spodoptera frugiperda spray test (cotton leaves); conditions: 168 h
Summary of the method: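 Cotton leaves sprayed with compound in water/DMF with 1000 ppm alkylaryl polyglycol ether emulsifier, ammonium salt and/or penetration enhancer at 1000 ppm added if necessary, then infested with fall armyworm caterpillars. Mortality in % scored after 7 days; 100% means all caterpillars killed.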

[2] = test system: larvae of the southern green stink bug (Nezara viridula); assay: Nezara viridula spray test; conditions: in Hordeum vulgare, 96 h
Summary of the method: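 Percent mortality of southern green stink bug larvae read 4 days after spraying infested Hordeum vulgare. Test solutions: compound in acetone plus dimethylformamide, diluted with emulsifier-containing water (1000 ppm alkylarylpolyglycol ether).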

[3] = test system: Aedes aegypti strain MONHEIM; assay: Aedes aegypti test (AEDSAE surface treatment & contact assay); conditions: 24 hours after contact, read-out: efficacy (mortality); for mortality at 4 mg/m2: surface concentration 4 mg/m^2, 30 minutes exposure; for mortality at 20 mg/m2: surface concentration 20 mg/m^2, 30 minutes exposure
Description: (§1) Solvent: Aceton+2000 ppm rapeseed oil methyl ester (RME)
In order to produce a sufficient, active ingredient containing solution it is necessary to solve the test compound in the solvent-mix (acetone at 2 mg/ml/RME 2000 ppm). This solution is pipetted onto a glazed tile and after evaporation of the acetone, adult mosquitoes of the species Aedes aegypti strain MONHEIM are placed onto the dried surface. The exposure time is 30 minutes. Mortality in percent (%) is determined 24 hours after contact of the insects to the treated surface. 100% mortality means that all tested insects are dead, whereas 0% means that no insect died.

[4] = test system: adult brown dog ticks (Rhipicephalus sanguineus); assay: Rhipicephalus sanguineus in-vitro contact test with adult brown dog ticks; conditions: after 48 hours, read-out: efficacy (ticks dead or moribund); for pest or weed control at 1 µg/cm2, 100 g/ha: 1 μg/cm^2 (=100 g/ha); for pest or weed control at 5 µg/cm2, 500 g/ha: 5 μg/cm^2 (=500 g/ha)
Summary of the method: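 Efficacy is the percentage of adult ticks dead or moribund, meaning immotile or uncoordinated and unable to escape 45-50° C. heat within 5 min. Read 48 h after 5-10 ticks were enclosed at room temperature in acetone-coated glass tubes. Dose 5 μg/cm^2, from a 900 ppm coating solution.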

[5] = test system: Blattella germanica strain PAULINIA; assay: Blattella germanica test (BLTTGE surface treatment & contact assay); conditions: 24 hours after contact, read-out: efficacy (mortality)
Description: as §1
(§2) In order to produce a sufficient, active ingredient containing solution it is necessary to solve the test compound in the solvent-mix (acetone at 2 mg/ml/RME 2000 ppm). This solution is pipetted onto a glazed tile and after evaporation of the acetone, adult animals of the species Blattella germanica strain PAULINIA are placed onto the dried surface. The exposure time is 30 minutes.
(§3) Mortality in percent (%) is determined 24 hours after contact of the insects to the treated surface. 100% mortality means that all tested insects are dead, whereas 0% means that no insect died.

[6] = test system: Anopheles funestus strain FUMOZ-R; assay: Anopheles funestus test (ANPHFU surface treatment & contact assay); conditions: 24 hours after contact, read-out: efficacy (mortality)
Description: as §1
as §2, with “mosquitoes” for “animals”, “Anopheles funestus” for “Blattella germanica”, “FUMOZ-R (Hunt et al., Med. Vet. Entomol. 2005 September; 19(3): 271-275)” for “PAULINIA”
as §3

[7] = test system: cattle ticks (Rhipicephalus microplus) strain Parkhurst, SP-resistant; assay: Rhipicephalus (Boophilus) microplus dip test; conditions: 100 ppm, egg deposition after 7 days
Description: Test animal: cattle ticks (Rhipicephalus microplus) strain Parkhurst, SP-resistant
Solvent: dimethyl sulfoxide
To produce a suitable preparation of active compound, 10 mg of active compound are dissolved in 0.5 mL solvent, and the concentrate is diluted with water to the desired concentration.
This compound solution is pipetted into tubes. 8-10 engorged, adult, female cattle ticks (Rhipicephalus microplus) are placed in perforated tubes. These tubes are immersed in the aqueous compound solution until the ticks are completely moistened. After the liquid has drained off, the ticks are transferred to a filter paper in a plastic tray and stored in a climate chamber.
After 7 days egg deposition of fertile eggs is monitored. Eggs where fertility is not visible are stored in a climate chamber till hatching after about 42 days. An efficacy of 100% means all eggs are infertile; 0% means all eggs are fertile.

[8] = test system: green peach aphid (Myzus persicae); assay: Myzus persicae spray test; conditions: foliar, 120 h, 100 g/ha, after 5 days, Chinese cabbage leaf disks
Summary of the method: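 Chinese cabbage leaf disks carrying all instars of Myzus persicae were sprayed with compound. The formulation was acetone/dimethylformamide diluted in water with 1000 ppm alkylarylpolyglycol ether emulsifier. Percent mortality was scored after 5 days, with 100% meaning all aphids killed.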

[9] = surface concentration 4 mg/m^2, 30 minutes exposure
[10] = surface concentration 20 mg/m^2, 30 minutes exposure

In the case of `CC(NC(=O)c1cc(Cl)cc(C(F)(F)F)c1)c1nc(N)nn1-c1ccc(Cl)cn1` (racemic) [I-006, N-[1-[5-amino-2-(5-chloro-2-pyridyl)-1,2,4-triazol-3-yl]ethyl]-3-chloro-5-(trifluoromethyl)benzamide], the mortality at 20 ppm [1] is reported as 100%, the mortality at 100 g/ha [2] is reported as 100% and the mortality at 500 g/ha [2] is reported as 100%. For the same compound, the mortality at 4 mg/m2 [3] was 90 to 100%, the mortality at 20 mg/m2 [3] was 90 to 100% and the pest or weed control at 1 µg/cm2, 100 g/ha [4] was 80%. The pest or weed control at 5 µg/cm2, 500 g/ha [4] was 100%.
Compound `CNc1nc(C(C)NC(=O)c2cc(C(F)(F)F)cc(C(F)(F)F)c2)n(-c2ncccn2)n1` (stereo not drawn) [I-088] has a mortality at 4 mg/m2 [5, 9] of 90 to 100%, a mortality at 20 mg/m2 [5, 10] of 90 to 100% and a mortality at 100 g/ha [2] of 100%. The mortality at 4 mg/m2 [6, 9] was 90 to 100%, the mortality at 20 mg/m2 [6, 10] was 90 to 100% and the mortality at 4 mg/m2 [3] was 90 to 100%. The mortality at 20 mg/m2 [3] was 90 to 100%, the “efficacy (infertile eggs)” value [7] was 100% and the pest or weed control at 1 µg/cm2, 100 g/ha [4] was 100%. It also gave a pest or weed control at 5 µg/cm2, 500 g/ha [4] of 100% and a mortality at 100 g/ha [8] of 100%.
